Data set [1] in a line: Lipophilicity, modified shake-flask method. The following applies: O/PBS, radiolabeled compound, means ± SD (n=6). It is filed as physicochemical. The method, then:
The lipophilicity (log PO/PBS) of the ^68Ga- and ^177Lu-labeled compounds in this study was determined via a modified shake-flask method.

In data set [2] the test system is Daudi (human B-cell lymphoma) xenograft bearing CB-17 SCID mice. In words: Biodistribution in Daudi xenograft bearing mice. It is filed as in vivo, mouse. The following applies: for Initial activity retained in the Daudi xenografts after 48h: 48h p.i. relative to early time point. In outline: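 Female CB-17 SCID mice with Daudi xenografts (n=4-5) received 5-10 MBq (0.08-0.11 nmol) ^68Ga- or ^177Lu-labelled ligand i.v.; blocking by coinjected 50 µg AMD3100. Organs counted by γ-counter at 1, 6 and 48 h p.i.; %ID/g (mean ± SD).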

The nature of data set [3]: In vivo metabolite analysis (radio-HPLC). Also noted: species or system mouse. Particulars: CB17 SCID mice, 0.5h p.i., i.v. app. 35 MBq; radio-HPLC of extracts. The method, then: 68Ga-labeling was performed as published previously using a 68Ge/68Ga generator (iTHEMBA Labs, South Africa) and a GallElut + synthesis module (SCINTOMICS GmbH, Germany). Usually, 5 nmol of precursor peptide were used, yielding the 68Ga-labeled peptides in specific activities of 100 to 120 […]
For 177Lu-labeling, the peptides were dissolved in water to yield a 1 mM solution. Of this solution, the required volume was added to 177LuCl3 in 0.04 M HCl (ITG/ITM, Garching, Germany; activity concentration: 370 MBq/500 µl) to achieve a peptide-to -177Lu-activity ratio of 1 nmol peptide per 225 MBq 177LuCl3. To this mixture, 1 M NH4OAc was added (calculated to be 10% of total reaction volume), and the mixture was heated to 90°C for 4 0 min. […]
Human glioma U87 cells overexpressing CD4 and CXCR4 (U87CD4CXCR4) cells were kept in cultivation at least one week before starting the experiment. […] Perkin-Elmer’s LANCE cAMP assay kit (catalog #AD0262) based on time-resolved fluorescence resonance energy transfer (TR -FRET) was utilized to determine the ability of [natLu]DOTA -r -a -ABA -iodo CPCR4 and [ natLu]PentixaTher vs the reference CXCL12 to inhibit cAMP production induced by 5 µM Forskolin. […]
(15,000 g), and the supernatants were subjected to ultrafiltration. […] The blood extract was also analyzed by radio-HPLC. For all extracts the ex traction efficiency was determined in a ɣ -counter.

A short description of data set [4]: Small animal PET imaging in Daudi xenograft bearing mice. Particulars: CB17 SCID, mouse, iv, total radioactivity, 90 min p.i., dynamic PET, ROI analysis, n=1 per compound. It is filed as in vivo. The method, then: (§1) Small aminal PET imaging studies were performed using a Siemens Inveon PET scanner. Animals were anesthetized with isoflurane and injected via the tail vein with 10 to 15 MBq (0.1 nmol) of the respective tracer. Dynamic imaging (n=1 per compound) was performed after on-bed injection for 1.5 h, and static images (n=1 per compound) were acquired at 1 h p.i. with an acquisition time of 15 min. Data analysis was performed using the Inveon Research Workplace software. Images were reconstructed using a 3D ordered-subsets expectation maximum (OSEM3D) algorithm without scanner and attenuation correction. Time-activity curves (Figure 4) were obtained by generating isocontour regions of interest (ROI) for the tumor and the heart content (as a surrogate for blood activity), as well as by defining two spherical ROIs (each 23.4 mm^3) in the thigh area (muscle) and areas of homogenous tracer uptake in the liver, followed by plotting of average activity ± SD per volume in these ROIs over time.  Figure 4 Results from small animal PET imaging using [^68Ga]PentixaFor (top row), [^68Ga]DOTA-r-a-ABA-CPCR4 (middle row) and [^68Ga]DOTA-r-a-ABA-iodoCPCR4 (bottom row) in Daudi xenograft bearing CB17 SCID mice. Images on the left (MIP) were obtained by static imaging (1h p.i., n=1), the time activity curves (TAC) on the right were acquired by dynamic PET imaging (0-90 min p.i., n=1).

Data set [5] concerns Daudi xenograft bearing CB17 SCID mice. Described as above. The class given is in vivo. Particulars: mouse, in vivo. The procedure:
as §1

Another data set concerns the target T1, murine CXCR4 (mCXCR4) (Mus musculus, UniProt P70658).
T1 construct: mCXCR4-expressing Eµ-Myc1080 mouse B-cell lymphoma cells; endogenous in cells; host or cells: Eµ-Myc1080 mouse B-cell lymphoma cells (whole cells)
Kind of data set: Competition binding to mCXCR4, Eµ-myc 1080 mouse lymphoma cells, [125I]CPCR4.3 as radioligand. Particulars: Eµ-myc 1080 mouse lymphoma cells 200.000 cells/sample, means ± SD of min. three separate experiments. The procedure:
Experiments were performed in triplicate with n=3 per concentration in each experiment. IC50 values were calculated using GraphPad Prism 6.01 (Graph Pad Software, San Diego, USA).

Setting [6] is: 1h p.i., tracer only, i.v., γ-counter, means ± SD, n=4-5 (68Ga: n=4).

Where two headings read alike, the source gives them in different places. Where a SMILES comes first, the peptide text is derived from it. Side-chain parts run from the residue outwards. [ ]: non-standard residue; d: D form. The star is where a group is joined. DOTA = O=C(O)CN1CCN(CC(=O)O)CCN(CC(=O)*)CCN(CC(=O)O)CC1; dTyr(3-I) = N[C@H](Cc1ccc(O)c(I)c1)C(=O)O; 2Nal = N[C@@H](Cc1ccc2ccccc2c1)C(=O)O; dNMeOrn = CN[C@H](CCCN)C(=O)O; 4Amb = NCc1ccc(C(=O)O)cc1; 4Abz = Nc1ccc(C(=O)O)cc1

T1 sequence (P70658 whole entry): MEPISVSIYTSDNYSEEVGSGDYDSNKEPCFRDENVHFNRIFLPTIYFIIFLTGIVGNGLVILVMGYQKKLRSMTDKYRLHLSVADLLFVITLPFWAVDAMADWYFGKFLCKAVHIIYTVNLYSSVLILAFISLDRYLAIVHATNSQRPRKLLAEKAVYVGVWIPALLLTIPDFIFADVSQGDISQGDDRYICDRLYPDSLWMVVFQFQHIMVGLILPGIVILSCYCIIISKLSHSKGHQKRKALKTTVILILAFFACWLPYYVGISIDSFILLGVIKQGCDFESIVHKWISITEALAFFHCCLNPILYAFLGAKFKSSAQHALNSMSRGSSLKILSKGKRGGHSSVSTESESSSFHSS

On to `C[C@@H](NC(=O)[C@@H](CCCNC(=N)N)NC(=O)CN1CCN(CC(=O)O)CCN(CC(=O)O)CCN(CC(=O)O)CC1)C(=O)Nc1ccc(C(=O)NCCC[C@@H]2C(=O)N[C@@H](CCCNC(=N)N)C(=O)N[C@@H](Cc3ccc4ccccc4c3)C(=O)NCC(=O)N[C@H](Cc3ccc(O)c(I)c3)C(=O)N2C)cc1` [[^177Lu]DOTA-r-a-ABA-iodoCPCR4] [metal not drawn] (cyclo([2Nal]G[dTyr(3-I)][dNMeOrn]([4Abz-dA-dR-DOTA])R)), for which the “log PO/PBS” value in data set [1] is -2.8 ± 0.04. Besides, in data set [2] (setting [6]), the Biodistribution adrenals stood at 4.54 ± 1.06 %iD/g, the Biodistribution blood is 2.90 ± 0.32 %iD/g, the Biodistribution colon turned out to be 1.19 ± 0.35 %iD/g and the Biodistribution femur was 1.92 ± 0.20 %iD/g. For the same compound, in data set [2] (setting [6]), the Biodistribution heart stood at 1.87 ± 0.32 %iD/g, the Biodistribution kidney is listed as 10.3 ± 0.26 %iD/g, the Biodistribution liver stood at 27.1 ± 1.87 %iD/g and the Biodistribution lung is 7.06 ± 0.67 %iD/g. In data set [2] (setting [6]), this compound yielded a Biodistribution muscle of 0.58 ± 0.07 %iD/g, a Biodistribution pancreas of 0.69 ± 0.14 %iD/g, a Biodistribution small intestine of 1.44 ± 0.22 %iD/g and a Biodistribution spleen of 6.72 ± 0.70 %iD/g. In data set [2] (setting [6]), the Biodistribution stomach came out at 1.95 ± 0.17 %iD/g and the “Biodistribution tumor (Daudi xenograft)” value is reported as 17.2±2.0 %iD/g. Also, the “Initial activity retained in the Daudi xenografts after 48h” value in data set [2] was approximately 50%. In data set [3], the “Stable (intact tracer) in blood, urine and liver homogenates” value is more than 99%.

Turning to `CN1C(=O)[C@@H](Cc2ccc(O)cc2)NC(=O)CNC(=O)[C@H](Cc2ccc3ccccc3c2)NC(=O)[C@H](CCCNC(=N)N)NC(=O)[C@H]1CCCNC(=O)c1ccc(CNC(=O)CN2CCN(CC(=O)O)CCN(CC(=O)O)CCN(CC(=O)O)CC2)cc1` [[^68Ga]PentixaFor, cyclo(D-Tyr^1-D-[NMe]Orn^2(AMBS-[^68Ga]DOTA)-Arg^3-Nal^4-Gly^5), metal not drawn, reference compound] (cyclo([dY][dNMeOrn]([4Amb-DOTA])R[2Nal]G)), the tissue uptake per volume at 1.5 h is 2.7 ± 0.1 %ID/mL in data set [4] (kidney, read-out: Kidney uptake in PET); 1.8 ± 0.1 %ID/mL in data set [4] (liver, average ± SD per volume in ROI, read-out: Liver uptake in PET); 14.3 ± 1.2 %ID/mL in data set [4] (tumor (Daudi xenograft), Daudi xenograft, read-out: Tumor accumulation in PET). In addition, the “Time at which tumor uptake plateaus (TAC)” value in data set [5] is listed as approximately 20 min p.i.

By IC50 is commonly meant the concentration that inhibits the measured activity by half. A lower IC50 goes with higher potency. In turn, “[^natLu]DOTA-k-G-ABA-iodoCPCR4 (head to tail) [natLu-complex of entry 10]” gave an IC50 at murine CXCR4 (mCXCR4) of 61 ± 17 nM.

Turning to “[^natLu]DOTA-r-G-ABA-iodoCPCR4 (head to tail) [natLu-complex of entry 12]”, the IC50 on murine CXCR4 (mCXCR4) came out at 37 ± 3 nM.

For the compound `C[C@@H](NC(=O)[C@@H](CCCNC(=N)N)NC(=O)CN1CCN(CC(=O)O)CCN(CC(=O)O)CCN(CC(=O)O)CC1)C(=O)Nc1ccc(C(=O)NCCC[C@@H]2C(=O)N[C@@H](CCCNC(=N)N)C(=O)N[C@@H](Cc3ccc4ccccc4c3)C(=O)NCC(=O)N[C@H](Cc3ccc(O)cc3)C(=O)N2C)cc1` [[^177Lu]DOTA-r-a-ABA-CPCR4] [metal not drawn] (cyclo([2Nal]G[dY][dNMeOrn]([4Abz-dA-dR-DOTA])R)), in data set [1], the “log PO/PBS” value is reported as -3.0 ± 0.13. Further, in data set [2] (setting [6]), the Biodistribution adrenals was found to be 1.16 ± 0.18 %iD/g, the Biodistribution blood came out at 1.50 ± 0.10 %iD/g, the Biodistribution colon is 0.78 ± 0.28 %iD/g and the Biodistribution femur is reported as 0.86 ± 0.04 %iD/g. Also, in data set [2] (setting [6]), the Biodistribution heart is given as 0.90 ± 0.07 %iD/g, the Biodistribution kidney is listed as 9.74 ± 0.91 %iD/g, the Biodistribution liver was 11.9 ± 1.57 %iD/g and the Biodistribution lung is on record as 3.53 ± 1.20 %iD/g. In data set [2] (setting [6]), this compound had a Biodistribution muscle of 0.28 ± 0.02 %iD/g, a Biodistribution small intestine of 1.23 ± 0.18 %iD/g, a Biodistribution spleen of 2.41 ± 0.34 %iD/g and a Biodistribution stomach of 1.72 ± 0.16 %iD/g. In data set [2] (setting [6]), the “Biodistribution tumor (Daudi xenograft)” value was found to be 18.3±3.7 %iD/g. The “Initial activity retained in the Daudi xenografts after 48h” value in data set [2] was approximately 50%. Also, the “Stable (intact tracer) in blood, urine and liver homogenates” value in data set [3] is recorded as more than 99%.
